Measurements: PubChem BioAssay (NCI)
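The compound was tested at five concentrations on cells cultured in 96-well plates, with a 48-hour exposure period. Abbreviation: GI50, concentration required for 50% inhibition of growth. TGI: total growth inhibition.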

Columns and labels:
Test in all cases: NCI tumour cell line growth inhibition, 48 h
RPMI-8226 leukemia = tested on: RPMI-8226 leukemia
BT-549 breast = tested on: BT-549 breast
MDA-MB-468 breast = tested on: MDA-MB-468 breast
MDA-MB-435 = tested on: MDA-MB-435
UACC-62 melanoma = tested on: UACC-62 melanoma
SK-OV-3 ovarian = tested on: SK-OV-3 ovarian
HCC-2998 colon = tested on: HCC-2998 colon
SN12C renal = tested on: SN12C renal
SF-268 CNS = tested on: SF-268 CNS
K-562 leukemia = tested on: K-562 leukemia
M14 melanoma = tested on: M14 melanoma
HL-60(TB) leukemia = tested on: HL-60(TB) leukemia
A498 renal = tested on: A498 renal
SK-MEL-5 melanoma = tested on: SK-MEL-5 melanoma
SF-539 CNS = tested on: SF-539 CNS
OVCAR-4 ovarian = tested on: OVCAR-4 ovarian
A549 NSCLC = tested on: A549 NSCLC
HCT-15 colon = tested on: HCT-15 colon
UO-31 renal = tested on: UO-31 renal
IGROV1 ovarian = tested on: IGROV1 ovarian
HCT-116 colon = tested on: HCT-116 colon
NCI-H522 lung = tested on: NCI-H522 lung
MCF7 breast = tested on: MCF7 breast
COLO 205 colon = tested on: COLO 205 colon
CAKI-1 renal = tested on: CAKI-1 renal
RXF 393 renal = tested on: RXF 393 renal
HOP-62 NSCLC = tested on: HOP-62 NSCLC
CCRF-CEM leukemia = tested on: CCRF-CEM leukemia
OVCAR-8 ovarian = tested on: OVCAR-8 ovarian

Clc1ccccc1Nc1nnc(-c2c[nH]c3ccccc23)o1
GI50 (RPMI-8226 leukemia): 1.31 µM | TGI (RPMI-8226 leukemia): > 100 µM | GI50 (BT-549 breast): 2.27 µM | TGI (BT-549 breast): 34.6 µM | GI50 (MDA-MB-468 breast): 1.2 µM | TGI (MDA-MB-468 breast): 4.9 µM | GI50 (MDA-MB-435): 0.233 µM | TGI (MDA-MB-435): 0.778 µM | GI50 (UACC-62 melanoma): 0.402 µM | TGI (UACC-62 melanoma): 17.1 µM | GI50 (SK-OV-3 ovarian): 3.68 µM | TGI (SK-OV-3 ovarian): 74.9 µM | GI50 (HCC-2998 colon): 1.85 µM | TGI (HCC-2998 colon): 14.2 µM | GI50 (SN12C renal): 0.93 µM | TGI (SN12C renal): 21.7 µM | GI50 (SF-268 CNS): 6.89 µM | TGI (SF-268 CNS): 51.7 µM | GI50 (K-562 leukemia): 0.308 µM | TGI (K-562 leukemia): > 100 µM | GI50 (M14 melanoma): 0.71 µM | TGI (M14 melanoma): 20.2 µM | GI50 (HL-60(TB) leukemia): 0.321 µM | TGI (HL-60(TB) leukemia): 4.56 µM | GI50 (A498 renal): 18.8 µM | TGI (A498 renal): 50.8 µM | GI50 (SK-MEL-5 melanoma): 0.966 µM | TGI (SK-MEL-5 melanoma): 7.39 µM | GI50 (SF-539 CNS): 0.708 µM | TGI (SF-539 CNS): 3.24 µM | GI50 (OVCAR-4 ovarian): 22.7 µM | TGI (OVCAR-4 ovarian): > 100 µM | GI50 (A549 NSCLC): 1.73 µM | TGI (A549 NSCLC): > 100 µM | GI50 (HCT-15 colon): 0.35 µM | TGI (HCT-15 colon): 23.9 µM | GI50 (UO-31 renal): 1.82 µM | TGI (UO-31 renal): 49.7 µM | GI50 (IGROV1 ovarian): 0.429 µM | TGI (IGROV1 ovarian): 33.5 µM | GI50 (HCT-116 colon): 11.9 µM | TGI (HCT-116 colon): 77.6 µM | GI50 (NCI-H522 lung): 0.305 µM | TGI (NCI-H522 lung): 2.38 µM | GI50 (MCF7 breast): 0.583 µM | TGI (MCF7 breast): 21.6 µM | GI50 (COLO 205 colon): 0.867 µM | TGI (COLO 205 colon): 11.7 µM | GI50 (CAKI-1 renal): 0.647 µM | TGI (CAKI-1 renal): 33.2 µM | GI50 (RXF 393 renal): 1.52 µM | TGI (RXF 393 renal): 11.1 µM | GI50 (HOP-62 NSCLC): 4.58 µM | TGI (HOP-62 NSCLC): 63.5 µM | GI50 (CCRF-CEM leukemia): 0.501 µM | TGI (CCRF-CEM leukemia): 26.5 µM | GI50 (OVCAR-8 ovarian): 1.6 µM
